Here are results for two molecules from patent US20250281410A1, “HIGH-THROUGHPUT PREPARATION OF MICROPARTICLES WITH PULSATILE RELEASE” (William Marsh Rice University, priority 2021, published 2025).

The conditions of data set [1]: cited from earlier work.
For another data set, the system named is Avastin. Kind of data set: Release of active Avastin from microparticles with excipients, activity by ELISA. The following applies: excipients added during fabrication. The procedure:
FIGS. 27A-27F show the release of Avastin from microparticles. FIG. 27A is a heat map depicting the sum of the percentage of Avastin inside the microparticles and Avastin released from the microparticles. Data is normalized to amount of Avastin filled into microparticles. […] Avastin activity was measured using an ELISA. The excipients that were studied were bovine serum albumin (BSA) and sorbitol: monosodium glutamate (MSG): magnesium chloride (MgCl2). FIGS. 27B-27I show plots of the release kinetics of the microparticle formulations of FIG. 27A. The release kinetics depicted in FIG. 27B are for a microparticle with 3 μg BSA as an excipient. The release kinetics depicted in FIG. 27C are for a microparticle with 2 μg BSA as an excipient. […]
Due to concern about the thermal stress potential involved when heating up biotherapeutics which may be desirable as a payload of the microparticles described herein, the temperature of the microparticles was measured during the sealing process to determine the peak temperature and duration of exposure to elevated temperature to quantify the thermal stress that the protein might experience (FIG. 25). […] To determine if these temperatures would damage encapsulated biotherapeutics, the stability of horseradish peroxidase (HRP), was assessed after every step in the formulation process (dispensing, drying, and sealing). […]
(In an ELISA, binding on a coated surface is turned into a signal by an enzyme label.)

Turning to `CC(C)Cn1cnc2c(N)nc3ccccc3c21` [imiquimod], the solubility in water entry in data set [1] is recorded as “approximately 2 μg/mL”.

As to “Avastin: a fragile biotherapeutic used to treat certain cancers”, the “Avastin remaining after release” value in the data set on Avastin is listed as “significant amounts”.
